Reference: ChEMBL document CHEMBL1201862, “PubChem BioAssay data set” (2004)
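In this assay, cells in 96-well plates receive the compound at five concentrations for 48 hours. Endpoints are linearly interpolated between the surrounding concentrations. GI50 = concentration required for 50% inhibition of growth.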 Calls of active or inactive are those of the source. Cut-off read from the data, not from the text of the source: active = GI50 up to about 1.1 µM and inactive = higher.

Tests used:
Assay in all cases: growth of human tumour cells (NCI), 48 h
RPMI-8226 = test system: RPMI-8226
ACHN = test system: ACHN
PC-3 = test system: PC-3
CAKI-1 = test system: CAKI-1
HCC 2998 = test system: HCC 2998
UACC-257 = test system: UACC-257
IGROV-1 = test system: IGROV-1
OVCAR-3 = test system: OVCAR-3
CCRF-CEM = test system: CCRF-CEM
SW-620 = test system: SW-620
HT-29 = test system: HT-29
NCI-H522 = test system: NCI-H522
DU-145 = test system: DU-145
SR = test system: SR
SK-MEL-5 = test system: SK-MEL-5
T47D = test system: T47D
TK-10 = test system: TK-10
NCI-H23 = test system: NCI-H23
NCI/ADR-RES = test system: NCI/ADR-RES
M14 = test system: M14
A549 = test system: A549
SK-MEL-2 = test system: SK-MEL-2
MCF7 = test system: MCF7
HOP-62 = test system: HOP-62
HCT-15 = test system: HCT-15
LOX IMVI = test system: LOX IMVI
HOP-92 = test system: HOP-92
MDA-MB-435 = test system: MDA-MB-435
COLO 205 = test system: COLO 205
EKVX = test system: EKVX
Hs-578T = test system: Hs-578T
OVCAR-5 = test system: OVCAR-5
SNB-75 = test system: SNB-75
KM12 = test system: KM12
SK-MEL-28 = test system: SK-MEL-28
K562 = test system: K562
UO-31 = test system: UO-31
MDA-N = test system: MDA-N
HCT-116 = test system: HCT-116
OVCAR-8 = test system: OVCAR-8
SNB-19 = test system: SNB-19
SN12C = test system: SN12C
786-0 = test system: 786-0
UACC-62 = test system: UACC-62
SF-295 = test system: SF-295
SF-539 = test system: SF-539
SF-268 = test system: SF-268

For `COc1cccc(C2c3cc4c(cc3OC(N3CCCC3)C2C)OCO4)c1` (configuration not stated), the GI50 (RPMI-8226) was 4.85 µM (inactive), the GI50 (ACHN) was 8.79 µM (inactive) and the GI50 (PC-3) was 11 µM (inactive). For the same molecule, the GI50 (CAKI-1) was 2.12 µM (inactive), the GI50 (HCC 2998) was 11.9 µM (inactive) and the GI50 (UACC-257) was 12.1 µM (inactive). For the same molecule, the GI50 (IGROV-1) was 6.32 µM (inactive), the GI50 (OVCAR-3) was 7.48 µM (inactive) and the GI50 (CCRF-CEM) was 0.513 µM (active). The GI50 (SW-620) was 4.55 µM (inactive), the GI50 (HT-29) was 4.58 µM (inactive) and the GI50 (NCI-H522) was 3.92 µM (inactive). For the same molecule, the GI50 (DU-145) was 16.3 µM (inactive), the GI50 (SR) was 3.82 µM (inactive) and the GI50 (SK-MEL-5) was 5.53 µM (inactive). The GI50 (T47D) was 5.16 µM (inactive), the GI50 (TK-10) was 18.6 µM (inactive) and the GI50 (NCI-H23) was 22.8 µM (inactive). For the same molecule, the GI50 (NCI/ADR-RES) was 4.53 µM (inactive), the GI50 (M14) was 3.96 µM (inactive) and the GI50 (A549) was 9.2 µM (inactive). The GI50 (SK-MEL-2) was 5.48 µM (inactive), the GI50 (MCF7) was 5.85 µM (inactive) and the GI50 (HOP-62) was 4.63 µM (inactive). For the same molecule, the GI50 (HCT-15) was 4.68 µM, the GI50 (LOX IMVI) was 5.71 µM (inactive) and the GI50 (HOP-92) was 2.83 µM (inactive). The GI50 (MDA-MB-435) was 2.7 µM (inactive), the GI50 (COLO 205) was 9.77 µM (inactive) and the GI50 (EKVX) was 21.3 µM (inactive). The GI50 (Hs-578T) was 8.3 µM (inactive), the GI50 (OVCAR-5) was 24.9 µM (inactive) and the GI50 (SNB-75) was 4.99 µM (inactive). For the same molecule, the GI50 (KM12) was 6.01 µM (inactive), the GI50 (SK-MEL-28) was 8.79 µM (inactive) and the GI50 (K562) was 2.69 µM (inactive). The GI50 (UO-31) was 12.1 µM (inactive), the GI50 (MDA-N) was 1.79 µM (inactive) and the GI50 (HCT-116) was 4.76 µM (inactive). The GI50 (OVCAR-8) was 18.7 µM (inactive), the GI50 (SNB-19) was 11.4 µM (inactive) and the GI50 (SN12C) was 20.9 µM (inactive). The GI50 (786-0) was 9.62 µM (inactive), the GI50 (UACC-62) was 4.66 µM (inactive) and the GI50 (SF-295) was 3.04 µM (inactive). For the same molecule, the GI50 (SF-539) was 8.69 µM (inactive) and the GI50 (SF-268) was 14.7 µM (inactive).
